The target of the assay is Proto-oncogene tyrosine-protein kinase Src (Homo sapiens, UniProt P12931). Briefly: Inhibitory activity against SH2 domain of human p60 c-Src tyrosine kinase using surface plasmon resonance (SPR) assay. For orientation: In SPR one partner is held on a chip, and binding of the other changes the refractive index at the surface.

Structures are written as SMILES. Some results are limits rather than exact numbers.

Here are results for three molecules from ChEMBL document CHEMBL1145907, “Requirements for specific binding of low affinity inhibitor fragments to the SH2 domain of (pp60)Src are identical to those for high affinity binding of full length inhibitors” (J Med Chem, 2003).

Proto-oncogene tyrosine-protein kinase Src, sequence (P12931 2-536 limits assumed): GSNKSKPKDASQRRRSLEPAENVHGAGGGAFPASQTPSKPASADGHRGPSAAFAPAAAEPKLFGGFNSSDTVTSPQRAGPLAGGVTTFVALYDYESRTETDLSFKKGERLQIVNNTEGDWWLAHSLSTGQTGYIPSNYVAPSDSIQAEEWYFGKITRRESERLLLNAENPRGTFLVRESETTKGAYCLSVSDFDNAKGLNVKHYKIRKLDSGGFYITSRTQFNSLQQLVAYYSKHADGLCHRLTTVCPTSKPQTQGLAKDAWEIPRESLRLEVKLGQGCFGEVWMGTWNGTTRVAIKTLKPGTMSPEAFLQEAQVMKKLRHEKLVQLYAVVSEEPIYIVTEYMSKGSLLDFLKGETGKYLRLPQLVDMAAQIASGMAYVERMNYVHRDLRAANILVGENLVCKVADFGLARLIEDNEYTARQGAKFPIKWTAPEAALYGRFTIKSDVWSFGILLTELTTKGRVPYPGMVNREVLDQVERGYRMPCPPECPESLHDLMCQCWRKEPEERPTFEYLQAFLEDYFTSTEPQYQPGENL

Turning to `O=P(O)(O)O` [PHOSPHORIC ACID], the IC50 is more than 40 mM.
In the case of `O=C(O)CC(O)(CC(=O)O)C(=O)O` [CITRIC ACID] it was more than 40 mM; in that of `O=[N+]([O-])c1cc2c(cc1C(O)P(=O)(O)O)OCO2` (stereo not drawn), 0.3 mM.

For orientation: IC50 means the concentration needed to halve the response being measured.
